Assays:
conscious guinea pigs = assay: Guinea pig colonic transit of carmine red dye; assay type: in vivo; settings: s.c., maximum effect already achieved
K+V channel = assay type: binding; settings: [125I]-α-dendrotoxin 0.01 nM
Human B2 = Human B2 (Homo sapiens, UniProt P30411); assay: Radioligand binding: Human B2
Human CCK2 (CCKB) = Human CCK2 (CCKB) (Homo sapiens, UniProt P32239); assay: Radioligand binding: Human CCK2
Human D1 = Human D1 (Homo sapiens, UniProt P21728); assay: Radioligand binding: Human D1
rat esophagus = assay: Rat esophageal relaxation; assay type: in vivo; settings: cumulative i.d. dosing, anesthetized rats
Rat Ca2+ channel (N) = Rat Ca2+ channel (N) (Rattus norvegicus, UniProt Q02294); assay: biochemical; assay type: binding
Rat α2 (non-selective) = assay: Radioligand binding: Rat α2; settings: [3H]-RX 821002 0.5 nM
Rat P2Y = assay: Radioligand binding: Rat P2Y; settings: [35S]-dATP αS 10 nM
Bovine 5-HT1D = Bovine 5-HT1D (Bos taurus, UniProt F1MMU1); assay: Radioligand binding: Bovine 5-HT1D
Rat adenylyl cyclase = assay: Enzyme inhibition: Rat adenylyl cyclase; settings: ATP 500 μM, TD-8954 1 μM
Human M5 = Human M5 (Homo sapiens, UniProt P08912); assay: Radioligand binding: Human M5
Human μ = Human μ (Homo sapiens, UniProt P35372); assay: Radioligand binding: Human μ opiate receptor
healthy human subjects = assay: Human single ascending dose study, bowel movements; assay type: in vivo
Human Y1 = Human Y1 (Homo sapiens, UniProt P25929); assay: Radioligand binding: Human Y1
[1] = molecular target: Rat galanin (non-selective); assay: Radioligand binding: Rat galanin; settings: [125I]-galanin 0.05 nM
Human V2 = Human V2 (Homo sapiens, UniProt P30518); assay: Radioligand binding: Human V2
[2] = read-out: % Inhibition of specific binding (1 μM)

Sequence of Human B2 (P30411 whole entry): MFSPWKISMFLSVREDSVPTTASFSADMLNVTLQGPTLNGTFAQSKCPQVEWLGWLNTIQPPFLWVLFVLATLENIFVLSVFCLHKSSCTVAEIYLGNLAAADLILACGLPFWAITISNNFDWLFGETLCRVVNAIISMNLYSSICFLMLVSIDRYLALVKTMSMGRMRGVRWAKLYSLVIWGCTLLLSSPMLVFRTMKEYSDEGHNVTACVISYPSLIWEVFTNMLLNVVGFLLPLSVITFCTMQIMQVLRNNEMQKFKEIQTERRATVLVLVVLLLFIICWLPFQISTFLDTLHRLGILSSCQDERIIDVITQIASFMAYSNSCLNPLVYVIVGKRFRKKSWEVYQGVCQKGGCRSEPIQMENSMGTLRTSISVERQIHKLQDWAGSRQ
Sequence of Human CCK2 (CCKB) (P32239 whole entry): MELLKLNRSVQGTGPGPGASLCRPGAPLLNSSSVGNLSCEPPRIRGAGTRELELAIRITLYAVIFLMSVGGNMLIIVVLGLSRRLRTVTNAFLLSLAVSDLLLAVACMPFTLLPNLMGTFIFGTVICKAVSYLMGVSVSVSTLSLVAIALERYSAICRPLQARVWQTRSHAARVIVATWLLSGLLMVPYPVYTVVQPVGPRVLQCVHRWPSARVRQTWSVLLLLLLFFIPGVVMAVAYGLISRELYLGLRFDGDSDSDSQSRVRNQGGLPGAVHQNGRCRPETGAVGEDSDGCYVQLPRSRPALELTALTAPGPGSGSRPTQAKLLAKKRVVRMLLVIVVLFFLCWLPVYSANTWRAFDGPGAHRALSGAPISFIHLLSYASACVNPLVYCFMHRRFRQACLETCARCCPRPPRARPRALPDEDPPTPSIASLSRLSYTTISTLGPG
Sequence of Human D1 (P21728 whole entry): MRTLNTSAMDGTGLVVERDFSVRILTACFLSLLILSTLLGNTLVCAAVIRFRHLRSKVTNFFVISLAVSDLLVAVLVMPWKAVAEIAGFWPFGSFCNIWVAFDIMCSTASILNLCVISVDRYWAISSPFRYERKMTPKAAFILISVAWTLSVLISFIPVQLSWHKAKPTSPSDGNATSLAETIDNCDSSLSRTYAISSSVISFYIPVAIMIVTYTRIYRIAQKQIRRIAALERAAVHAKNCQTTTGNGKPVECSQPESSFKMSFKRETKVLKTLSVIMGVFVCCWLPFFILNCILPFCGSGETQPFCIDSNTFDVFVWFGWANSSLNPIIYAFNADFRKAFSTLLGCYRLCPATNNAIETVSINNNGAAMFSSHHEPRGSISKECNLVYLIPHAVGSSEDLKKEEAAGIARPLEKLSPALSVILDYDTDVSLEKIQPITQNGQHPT
Sequence of Human μ (P35372 whole entry): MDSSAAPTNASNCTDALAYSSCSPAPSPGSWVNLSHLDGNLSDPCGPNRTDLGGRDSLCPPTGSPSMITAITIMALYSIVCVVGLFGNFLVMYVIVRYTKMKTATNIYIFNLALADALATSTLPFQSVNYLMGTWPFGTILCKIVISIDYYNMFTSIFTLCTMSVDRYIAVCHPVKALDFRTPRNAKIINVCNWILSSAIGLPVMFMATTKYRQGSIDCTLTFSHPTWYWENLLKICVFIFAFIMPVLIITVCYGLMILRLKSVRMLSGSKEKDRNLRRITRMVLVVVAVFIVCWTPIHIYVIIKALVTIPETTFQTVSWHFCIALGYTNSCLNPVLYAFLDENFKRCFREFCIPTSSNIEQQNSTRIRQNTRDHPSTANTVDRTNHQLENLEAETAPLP
Sequence of Human M5 (P08912 whole entry): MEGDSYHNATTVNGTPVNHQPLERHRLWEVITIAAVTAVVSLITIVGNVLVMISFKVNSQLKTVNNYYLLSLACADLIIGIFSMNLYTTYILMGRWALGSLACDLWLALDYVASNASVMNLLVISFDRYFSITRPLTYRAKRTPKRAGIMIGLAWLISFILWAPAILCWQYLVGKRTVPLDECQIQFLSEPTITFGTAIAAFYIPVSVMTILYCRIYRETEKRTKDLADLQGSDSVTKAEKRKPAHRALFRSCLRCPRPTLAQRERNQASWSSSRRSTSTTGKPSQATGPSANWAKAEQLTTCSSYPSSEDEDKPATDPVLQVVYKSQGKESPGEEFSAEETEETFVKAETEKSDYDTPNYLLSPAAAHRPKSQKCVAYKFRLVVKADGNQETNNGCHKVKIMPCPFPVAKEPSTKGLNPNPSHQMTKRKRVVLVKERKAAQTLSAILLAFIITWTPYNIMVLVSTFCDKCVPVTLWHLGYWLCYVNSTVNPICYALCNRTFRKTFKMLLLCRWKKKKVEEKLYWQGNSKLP
Sequence of Bovine 5-HT1D (F1MMU1 1-377): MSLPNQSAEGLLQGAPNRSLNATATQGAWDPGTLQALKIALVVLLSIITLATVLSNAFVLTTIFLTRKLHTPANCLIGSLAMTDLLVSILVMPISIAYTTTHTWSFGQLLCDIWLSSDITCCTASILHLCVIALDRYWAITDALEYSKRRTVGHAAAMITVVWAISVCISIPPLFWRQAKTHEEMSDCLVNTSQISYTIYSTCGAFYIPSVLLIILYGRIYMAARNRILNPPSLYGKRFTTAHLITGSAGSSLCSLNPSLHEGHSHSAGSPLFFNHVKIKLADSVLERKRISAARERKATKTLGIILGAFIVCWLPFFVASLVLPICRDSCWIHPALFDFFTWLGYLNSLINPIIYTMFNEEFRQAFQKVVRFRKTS
Sequence of Human Y1 (P25929 whole entry): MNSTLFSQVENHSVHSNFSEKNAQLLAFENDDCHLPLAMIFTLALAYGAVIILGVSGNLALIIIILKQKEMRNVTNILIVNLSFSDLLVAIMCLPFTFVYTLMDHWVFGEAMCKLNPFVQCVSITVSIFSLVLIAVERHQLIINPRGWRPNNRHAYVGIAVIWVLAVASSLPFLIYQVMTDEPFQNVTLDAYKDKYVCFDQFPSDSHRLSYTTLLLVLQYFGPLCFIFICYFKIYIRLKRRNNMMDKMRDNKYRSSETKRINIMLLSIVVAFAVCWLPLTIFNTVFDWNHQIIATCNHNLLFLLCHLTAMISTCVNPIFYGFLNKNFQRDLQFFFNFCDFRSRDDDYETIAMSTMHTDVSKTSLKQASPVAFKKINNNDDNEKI
Sequence of Human V2 (P30518 whole entry): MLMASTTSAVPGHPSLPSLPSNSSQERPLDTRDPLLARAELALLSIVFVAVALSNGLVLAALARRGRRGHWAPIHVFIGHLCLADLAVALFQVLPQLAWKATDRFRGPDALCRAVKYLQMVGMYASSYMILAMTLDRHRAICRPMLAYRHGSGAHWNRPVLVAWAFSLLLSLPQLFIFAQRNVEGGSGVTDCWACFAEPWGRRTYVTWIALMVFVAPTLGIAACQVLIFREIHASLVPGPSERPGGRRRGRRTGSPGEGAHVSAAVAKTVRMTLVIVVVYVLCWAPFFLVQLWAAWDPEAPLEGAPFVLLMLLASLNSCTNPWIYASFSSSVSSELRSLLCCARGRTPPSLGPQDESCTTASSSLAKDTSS

`COC(=O)N1CCC(CN2CCC(CNC(=O)c3cccc4[nH]c(C(C)C)nc34)CC2)CC1` [TD-8954, 4-(4-{[(2-isopropyl-1H-benzoimidazole-4-carbonyl)amino]methyl}-piperidin-1-ylmethyl)piperidine-1-carboxylic acid methyl ester] was tested, and the “lowest dose tested, significantly active on colonic transit” value (conscious guinea pigs) was 0.03 mg/kg, the pKi (K+V channel) was under 6 and the “% Inhibition of specific binding (1 μM)” value (K+V channel; TD-8954 1 μM) was −5%. For the same molecule, the Ki (Human B2) was over 1000 nM, the inhibition at 1 µM (Human B2; [2]) was 3% and the Ki (Human CCK2 (CCKB)) was over 1000 nM. The inhibition at 1 µM (Human CCK2 (CCKB); [2]) was -1%, the Ki (Human D1) was over 1000 nM and the inhibition at 1 µM (Human D1; [2]) was -2%. For the same molecule, the “dose associated with a relaxation response of 0.1 mm” value (rat esophagus) was 0.23 mg/kg, the Ki (Rat Ca2+ channel (N)) was over 1000 nM and the pKi (Rat α2 (non-selective)) was under 6. For the same molecule, the pKi (Rat P2Y) was under 6, the “% Inhibition of specific binding (1 μM)” value (Rat P2Y; TD-8954 1 μM) was 8% and the Ki (Bovine 5-HT1D) was over 1000 nM. For the same molecule, the “% Inhibition of control (1 μM)” value (Rat adenylyl cyclase) was 5%, the Ki (Human M5) was over 10000 nM and the Ki (Human μ) was over 1000 nM. The “dose producing a maximal response” value (healthy human subjects; single oral dose) was 0.5 mg, the “lowest dose associated with a prokinetic effect” value (healthy human subjects; single oral dose) was 0.1 mg and the “time to first bowel movement compared to placebo” value (healthy human subjects; single oral dose 0.1–20 mg, p < 0.05) was “statistically significant reduction”. The Ki (Human Y1) was over 1000 nM, the pKi [1] was under 6 and the “% Inhibition of specific binding (1 μM)” value ([1]; TD-8954 1 μM) was 1%. It also gave a Ki (Human V2) of over 1000 nM.
